Data: patent US5780642A, “Imidazole derivatives as therapeutic agents” (KNOLL Aktiengesellschaft, priority 1993, dated 1998)
Counter-ions that a name gives are not always drawn. Like-named read-outs stand apart in the source and are kept apart here.

Assays:
[1] = system: Zymosan Stimulated Macrophages (arachidonic acid release); experiment: Test A: Inhibition of Arachidonic Acid Release from Zymosan Stimulated Macrophages; format: cell-based, mouse (female MF1 mice); conditions: read-out: Test A IC50
Experimental: Test A was carried out in the following way:
Inhibition of Arachidonic Acid Release from Zymosan Stimulated Macrophages
Female MF1 mice (weighing 20 to 25 g) were killed using a rising concentration of CO2. The mice were laid on their backs and the abdomens wiped with 70% alcohol. The skin was pulled back, exposing the peritoneal wall. Medium A (5 ml) (see below) was injected into the peritoneal cavity of each mouse followed by approximately 1 ml of air using a 20 ml syringe and a 21G×40 mm needle in order to form a suspension of macrophage cells. The medium and cells were then removed using a 19G×40 mm needle. The resulting suspension was returned to a sterile beaker kept on ice. The extracts from all the mice were pooled and this pooled cell suspension was counted using a Coulter counter and adjusted to a final cell count of 1-1.3×10^6 cells/ml prior to labelling with [^3 H]-arachidonic acid. Typically five mice provided sufficient cells for each multiwell plate.
Sufficient [^3 H]-arachidonic acid in ethanol to give a final concentration of 1.6 μCi/ml (equivalent to 40 μCi/plate) was blown to dryness under nitrogen. The arachidonic acid was then resuspended in 1 or 2 ml of the cell suspension which was then mixed with the remainder of the cell suspension in a centrifuge bottle. The labelled cell suspension was then plated out into sterile plastic 96 flat-bottomed well plates (250 μl per well) and incubated overnight at 37° C. in a moist atmosphere of 5% CO2, 95% air.
The following day, non-adherent cells were removed by washing 3 times with sterile phosphate buffered saline (PBS). The adherent peritoneal macrophages were then cultured for a further 24 hours in the presence or absence of drugs, in medium B (see below) at 37° in a 5% CO2 atmosphere in order to measure the effects of drugs on the spontaneous release of arachidonic acid in the absence of stimulus. After this incubation, supernatants were removed to give media 1 and stored in sealed multi-well plates at 4° C. prior to scintillation counting. Drugs which potentiated spontaneous release of arachidonic acid (125% of controls) were deemed to be toxic at the concentration at which this phenomenon occurred. The supernatants were replaced by fresh medium C containing fresh drug and a stimulus. Three drugs were tested at six concentrations (100, 50, 20, 10, 5 and 1 μM) in replicates of four on each plate. The other wells contained controls consisting of a positive control (e.g. dexamethasone), medium (B) only and medium C only.
Incubation was then continued for a further 5 hours, whereupon the supernatants were collected to give media 2 and the adherent cells washed with PBS. The cells were then lysed with 100 μl of 0.1% TRITON® X100 in a 0.1% solution of bovine serum albumin in 0.9% saline and mechanically disrupted to give cell lysates. These supernatants (media 2) and cell lysates (Cells) were also stored in sealed multi-well plates at 4° C. prior to scintillation counting. 200 μl aliquots of media, or 100 μl aliquots of cells were counted using 2 ml of OPTIPHASE "HIGH SAFE" (Trademark of LKB) as scintillant.
The percentage of arachidonic acid released was calculated using the mean values for each group of 4 wells in the following equation. [formula]
The value for the arachidonic acid release in the absence of stimulus (spontaneous, cpm of media 2) from cells which had been exposed to neither stimulus nor drug was subtracted from all equivalent values (cpm media 2, stimulated with or without drug) to give the net stimulated release. The percentage inhibition of arachidonic acid release caused by a drug may then be calculated using the following equation. [formula]
Compounds of formula I were tested at six concentrations (100, 50, 20, 10, 5 and 1 μM) and IC50 values calculated. Compounds with IC50 values≤100 μM are considered to be active. Advantageous compounds have an IC50 value<50 μM.
Medium A (for peritoneal lavage) […]

[2] = system: Carrageenan-induced pleurisy (migrating leukocytes); experiment: Carrageenan-induced pleurisy in rats; format: in vivo; conditions: rat, p.o. at time of challenge and 24h and 48h thereafter
Experimental: The most advantageous compounds of formula I were active in Tests A and B and also in the following test. Carrageenan-induced pleurisy in rats was carried out as described by Ackerman et al. J. Pharmacol. Exp. Therap. 1980, 215, 588-595. Migrating leukocytes were harvested by lavage of the thoracic cavity 72h after injection of 0.3 ml 1% λcarrageenan in sterile isotonic saline. Test compounds were administered p.o. at the time of challenge and 24h and 48 h thereafter.

[3] = system: Carrageenan-induced rat paw oedema; experiment: Test B: Carrageenan-induced rat paw oedema test; format: in vivo; conditions: 100 mg/kg oral; active = 20% or greater inhibition of paw oedema in at least two out of three tests
Experimental: Test B was carried out in the following way: Carrageenan-induced rat paw oedema test Female rats, weight range 125-150 g were fasted overnight. One of the hind legs of each animal was marked with a line at the connection between the cuboid/navicular and calcaneus/talus bones. Groups of six rats were orally dosed at 10 ml/kg, in random order, with a given dose of the test compound given as a solution or suspension in 10% (w/v) aqueous acacia solution. One hour after dosing, 0.1 ml of 1% (w/v) sterile carrageenan λ in normal saline was injected deeply into the plantar surface of the marked hind foot of each rat. The volume of the foot (up to the marked line) was measured immediately after injection using duplicate water displacement readings. Three hours after injection the foot volume was measured again and the percentage increase in foot volume relative to the initial reading was calculated. The increase in foot volume (i.e. the degree of oedema) in drug treated animals when compared with that in the drug untreated control gave the degree of inhibition of paw oedema by the drug. Compounds were considered to be active in this test if they produced a 20% or greater inhibition of paw oedema in at least two out of three tests after oral dosing at 100 mg/kg. Statistical significance was assessed using the Student's t test for single dose studies and Dunnett's test for multiple dose studies. More advantageous compounds were active in both Tests A and B.

[4] = Mus musculus, Macrophage, inhibition of arachidonic acid release, zymosan stimulated mouse peritoneal macrophages, tested at 100, 50, 20, 10, 5 and 1 μM, ≤100 μM considered active

In the case of `CCC(CC)(NCCCn1cnc(CCNC(=O)c2ccccc2)c1)c1ccccc1` [Example 60, N-(2-{1-[3-(1-ethyl-1-phenylpropylamino)propyl]imidazol-4-yl}ethyl)benzamide], the IC50 [1, 4] is reported as 17 µM and the “activity in carrageenan-induced pleurisy at 3 mg/kg or lower” value [2] is reported as “active”.
In the case of `CC(C)(NCCc1c[nH]cn1)c1ccc(Cl)cc1` [Example 85, 1-(4-chlorophenyl)-2'-(imidazol-4(5)-yl)-1-methyldiethylamine], the IC50 [1, 4] is reported as 47 µM and the “activity in carrageenan-induced pleurisy at 10 mg/kg” value (“activity … at 10 mg/kg” for short) [2] is reported as “active”.
`CCCCCCNC(=O)Cc1ccc(C(C)(C)NCCCn2ccnc2)cc1` [Example 29, N-Hexyl-4-{1-[3-(imidazol-1-yl)propylamino]-1-methylethyl}phenylacetamide] was tested, and the IC50 [1, 4] was 15 µM and the “activity … at 10 mg/kg” value [2] was “active”.
In the case of `CC(C)(NCC(O)Cn1ccnc1)c1ccc(Cl)cc1` (centres unmarked) [Example 43, 1-[1-(4-chlorophenyl)-1-methylethylamino]-3-(imidazol-1-yl)propan-2-ol], the IC50 [1, 4] is reported as 92 µM and the “activity in carrageenan-induced pleurisy at 3 mg/kg or lower” value [2] is reported as “active”.
`Cl.Cl.Fc1ccc(OCCNCCCn2ccnc2)cc1` [Example 7, N-[2-(4-Fluorophenoxy)ethyl]-3-(imidazol-1-yl)propylamine dihydrochloride] was tested, and the IC50 [1, 4] was 39 µM and the “activity in Test B (inhibition of paw oedema)” value [3] was “active”.
In the case of `CC(C)(CNCCCn1ccnc1)Oc1ccc(Cl)cc1` [Example 1, 2-(4-chlorophenoxy)-3'-(imidazol-1-yl)-2-methyldipropylamine], the IC50 [1, 4] is reported as 20 µM and the “activity … at 10 mg/kg” value [2] is reported as “active”.
`CC(C)(NCCCn1ccnc1)c1ccc(OS(=O)(=O)c2ccccc2)cc1` [Example 71, 4-{1-[3-(imidazol-1-yl)propylamino]-1-methylethyl}phenyl benzenesulphonate] was tested, and the IC50 [1, 4] was 23 µM.
`OCCN(CCCn1ccnc1)CCOc1ccc(Cl)cc1` [Example 66, 2-{N-[2-(4-chlorophenoxy)ethyl]-N-[3-(imidazol-1-yl)propyl]amino}ethanol] showed an IC50 [1, 4] of 24 µM.
Work on `Cc1ccc(S(=O)(=O)Cc2ccc(C(C)(C)NCCCn3ccnc3)cc2)cc1C` [Example 24, 3-(imidazol-1-yl)-N-{1-methyl-1-[4-(3,4-xylylsulphonylmethyl)phenyl]ethyl}propylamine dihydrochloride hydrate] yielded an IC50 [1, 4] of 22 µM.
In the case of `CC(C)(COCc1ccc(Cl)cc1)NCCCn1ccnc1` [Example 80, N-[2-(4-chlorobenzyloxy)-1,1-dimethylethyl]-3-(imidazol-1-yl)propylamine], the IC50 [1, 4] is reported as 13 µM.
For `CC(C)(NCCCn1cnc(CCN)c1)c1ccc(Cl)cc1` [Example 22, 3-[4-(2-Aminoethyl)imidazol-1-yl]-N-[1-(4-chlorophenyl)-1-methylethyl]propylamine trihydrochloride], the IC50 [1, 4] was 26 µM.
With `CC(C)(COC(=O)c1ccc(Cl)cc1)NCCCn1ccnc1` [Example 79, 2-[3-(imidazol-1-yl)propylamino]-2,2-dimethylethyl 4-chlorobenzoate dihydrochloride] the IC50 [1, 4] was 20 µM.
`CCCCNC(=O)NCCc1ccc(C(C)(C)NCCCn2ccnc2)cc1` [Example 58, N-butyl-N'-[2-(4-{1-[3-(imidazol-1-yl)propylamino]-1-methylethyl}phenyl)ethyl]urea] gave an IC50 [1, 4] of 20 µM.
For `c1ccc(COc2ccc(OCCNCCCn3ccnc3)cc2)cc1` [Example 10, N-[2-(4-Benzyloxyphenoxy)ethyl]-3-(imidazol-1-yl)propylamine dihydrochloride hydrate], the IC50 [1, 4] was 36 µM.
Work on `CC(C)(NCCCn1ccnc1)c1ccc(CC(=O)NCc2ccc(Cl)cc2)cc1` [Example 30, N-(4-Chlorobenzyl)-4-{1-[3-(imidazol-1-yl)propylamino]-1-methylethyl}phenylacetamide] yielded an IC50 [1, 4] of 20 µM.
`CC(C)(NCCCn1ccnc1)c1ccc(-c2ccc(O)cc2)cc1` [Example 59, 4'-{1-[3-(imidazol-1-yl)propylamino]-1-methylethyl}biphenyl-4-ol] was tested, and the IC50 ([1]; Mus musculus, Macrophage) was 8 µM.
`CC(C)(NCCCn1ccnc1C(O)c1ccccc1)c1ccc(Cl)cc1` (stereo not drawn) [Example 23, α-(1-{3-[1-(4-Chlorophenyl)-1-methylethylamino]propyl}-imidazol-2-yl)benzyl alcohol] gave an IC50 [1, 4] of 7 µM.
Work on `CC(C)(C[S+]([O-])c1ccc(Cl)cc1)NCCCn1ccnc1` (centres unmarked) [Example 68, N-[2-(4-chlorophenylsulphinyl)-1,1-dimethylethyl]-3-(imidazol-1-yl)propylamine dihydrochloride] yielded an IC50 [1, 4] of 100 µM.
`CC(C)(NCCCn1ccnc1)c1ccc(C(=O)NC2CCCCC2)cc1` [Example 28, N-Cyclohexyl-4-{1-[3-(imidazol-1-yl)propylamino]-1-methylethyl}benzamide] showed an IC50 [1, 4] of 25 µM.
For `CC(C)(NCCCn1ccnc1)c1ccc(CCNS(=O)(=O)c2ccccc2)cc1` [Example 56, N-[2-(4-{1-[3-(imidazol-1-yl)propylamino]-1-methylethyl}phenyl)ethyl]-benzenesulphonamide], the IC50 ([1]; Mus musculus, Macrophage) was 8 µM and the “activity … at 10 mg/kg” value [2] was “active”.
With `CC1(C)COC(c2ccc(C(C)(C)NCC(O)Cn3ccnc3)cc2)=N1` (centres unmarked) [Example 49, 1-{1-[4-(4,4-Dimethyl-2-oxazolin-2-yl)phenyl]-1-methylethylamino}-3-(imidazol-1-yl)propan-2-ol hemihydrate] the IC50 [1, 4] was 70 µM.
`CC(C)(CS(=O)(=O)c1ccc(C(C)(C)C)cc1)NCCCn1ccnc1` [Example 70, N-[2-(4-t-butylphenylsulphonyl)-1,1-dimethylethyl]-3-(imidazol-1-yl)-propylamine dihydrochloride] showed an IC50 [1, 4] of 84 µM.
`Clc1ccc(SCCNCCCn2ccnc2)cc1` [Example 11, N-[2-(4-Chlorophenylthio)ethyl]-3-(imidazol-1-yl)propylamine] was tested, and the IC50 [1, 4] was 37 µM.
In the case of `CC(C)(NCC(O)Cn1ccnc1)c1ccc(Cl)cc1` (single isomer, unassigned; (+)) [Example 45, (+)-1-[1-(4-Chlorophenyl)-1-methylethylamino]-3-(imidazol-1-yl)propan-2-ol], the IC50 ([1]; inhibition of arachidonic acid release, zymosan stimulated mouse peritoneal macrophages, tested at 100, 50, 20, 10, 5 and 1 μM, ≤100 μM considered active) is reported as 170 µM.
In the case of `CC(C)(COc1ccccc1)NCCCn1cnc(CCNS(=O)(=O)c2ccccc2)c1` [Example 77, N-(2-{1-[3-(1,1-dimethyl-2-phenoxyethylamino)propyl]imidazol-4-yl}ethyl]benzene-sulphonamide], the IC50 [1, 4] is reported as 12 µM.
